Measured values as given in patent US20170129916A1, “NOVEL BETULINIC PROLINE IMIDAZOLE DERIVATIVES AS HIV INHIBITORS” (HETERO RESEARCH FOUNDATION, priority 2014, published 2017).

Experiments:
[1] = system: HIV-1 strains, for e.g., 92HT599; assay: Antiviral activity: p24 estimation in MT-2 cells infected with HIV-1; format: cell-based; settings: Human immunodeficiency virus 1, MT2, MT-2 cells infected with HIV-1, p24, ~96 hours; for IC50: read-out: Antiviral activity IC50 (nM) Efficacy IC50
Procedure: MT-2 cells were infected with required number of TCID50's of HIV-1 strains, for e.g., 92HT599. The infected cells were plated at the concentration of 30, 000 cells per well in a 96 well plate. Test compound was added to the 96 well plate with the final concentration of DMSO (vehicle—not more than 1%). The plates are then incubated in a CO2 incubator for ˜96 hours (˜4 days) for viral infection. At the end of incubation period an aliquot from each well was taken for p24 estimation. The quantitation of p24 is an estimated index for antiviral activity of the compound. Percent inhibition was calculated with reference to control values (vehicle controls).
p-24 estimation was carried out using Advance biosciences kit as per the procedure detailed by supplier.

[2] = Single dose oral pharmacokinetic study; format: in vivo; settings: mouse, mice, 30 mg/kg, plasma; for AUC(0-t): read-out: Mice oral PK @30 mg/kg AUC 0-t; for Cmax: read-out: Mice oral PK @30 mg/kg Cmax
In short: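 Rats or mice received 30 mg/kg orally at 10 ml/kg dose volume. Retro-orbital blood was taken into K3 EDTA at defined intervals under light ether anesthesia and centrifuged to plasma. Plasma levels were measured by LC-MS-MS.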

C=C(C)[C@@H]1CC[C@]2(C(=O)N3C[C@H](OCCOC)C[C@H]3c3nc(-c4cccc(F)c4)c[nH]3)CC[C@]3(C)[C@H](CC[C@@H]4[C@@]5(C)CC[C@H](OC(=O)[C@H]6C[C@@H](C(=O)O)C6(C)C)C(C)(C)[C@@H]5CC[C@]43C)[C@@H]12 [Compound 8, (11R,3S)-3-((((1R,3aS,5aR,5bR,7aR,9S,11aR,11bR,13aR,13bR)-3a-((2S,4R)-2-(4-(3-fluorophenyl)-1H-imidazol-2-yl)-4-(2-methoxyethoxy)pyrrolidine-1-carbonyl)-5a,5b,8,8,11a-pentamethyl-1-(prop-1-en-2-yl)icosahydro-1H-cyclopenta[a]chrysen-9-yl)oxy)carbonyl)-2,2-dimethylcyclobutane-1-carboxylic acid]
IC50 [1]: 61.1 nM | AUC(0-t) [2]: 1240 µg·h/mL | Cmax [2]: 41300 ng/mL

C=C(C)[C@@H]1CC[C@]2(C(=O)N3CCC[C@H]3c3nc(C)c(C)[nH]3)CC[C@]3(C)[C@H](CC[C@@H]4[C@@]5(C)CC[C@H](OC(=O)[C@H]6C[C@@H](C(=O)O)C6(C)C)C(C)(C)[C@@H]5CC[C@]43C)[C@@H]12 [Compound 35, (1R,3S)-3-((((1R,3aS,5aR,5bR,7aR,9S,11aR,11bR,13aR,13bR)-3a-((S)-2-(4,5-dimethyl-1H-imidazol-2-yl)pyrrolidine-1-carbonyl)-5a,5b,8,8,11a-pentamethyl-1-(prop-1-en-2-yl)icosahydro-1H-cyclopenta[a]chrysen-9-yl)oxy)carbonyl)-2,2-dimethylcyclobutane-1-carboxylic acid]
inhibition at 0.1 µM [1]: 100% | inhibition at 1 µM [1]: 100% | IC50 [1]: 2.81 nM | AUC(0-t) [2]: 250 µg·h/mL | Cmax [2]: 14000 ng/mL

C=C(C)[C@@H]1CC[C@]2(C(=O)N3CCC[C@H]3c3nnc(-c4ccccc4)[nH]3)CC[C@]3(C)[C@H](CC[C@@H]4[C@@]5(C)CC[C@H](OC(=O)[C@H]6C[C@@H](C(=O)O)C6(C)C)C(C)(C)[C@@H]5CC[C@]43C)[C@@H]12 [Compound 24, (1R,3S)-2,2-dimethyl-3-((((1R,3aS,5aR,5bR,7aR,9S,11aR,11bR,13aR,13bR)-5a,5b,8,8,11a-pentamethyl-3a-((S)-2-(5-phenyl-4H-1,2,4-triazol-3-yl)pyrrolidine-1-carbonyl)-1-(prop-1-en-2-yl)icosahydro-1H-cyclopenta[a]chrysen-9-yl)oxy)carbonyl)cyclobutane-1-carboxylic acid]
IC50 [1]: 9.06 nM | AUC(0-t) [2]: 439 µg·h/mL | Cmax [2]: 12200 ng/mL

C=C(C)[C@@H]1CC[C@]2(C(=O)N3CCC[C@H]3c3nnc(-c4ccccc4)o3)CC[C@]3(C)[C@H](CC[C@@H]4[C@@]5(C)CC[C@H](OC(=O)[C@H]6C[C@@H](C(=O)O)C6(C)C)C(C)(C)[C@@H]5CC[C@]43C)[C@@H]12 [Compound 11, (1R,3S)-2,2-dimethyl-3-((((1R,3aS,5aR,5bR,7aR,9S,11aR,11bR,13aR,13bR)-5a,5b,8,8,11a-pentamethyl-3a-((S)-2-(5-phenyl-1,3,4-oxadiazol-2-yl)pyrrolidine-1-carbonyl)-1-(prop-1-en-2-yl)icosahydro-1H-cyclopenta[a]chrysen-9-yl)oxy)carbonyl)cyclobutane-1-carboxylic acid]
IC50 [1]: 5.96 nM | AUC(0-t) [2]: 403 µg·h/mL | Cmax [2]: 16300 ng/mL

COCCOc1ccc(-c2cnc([C@@H]3CCCN3C(=O)[C@]34CC[C@@H](C5(C)CC5)[C@@H]3[C@H]3CC[C@@H]5[C@@]6(C)CC[C@H](OC(=O)CC(C)(C)C(=O)O)C(C)(C)[C@@H]6CC[C@@]5(C)[C@]3(C)CC4)[nH]2)cc1 [Compound 66]
IC50 [1]: 0.73 nM | AUC(0-t) [2]: 62.1 µg·h/mL | Cmax [2]: 6590 ng/mL

CC(C)(CC(=O)O[C@H]1CC[C@]2(C)[C@H]3CC[C@@H]4[C@H]5[C@H](C6(C)CC6)CC[C@]5(C(=O)N5CCC[C@H]5c5ncc(-c6ccccn6)[nH]5)CC[C@@]4(C)[C@]3(C)CC[C@H]2C1(C)C)C(=O)O [Compound 62, 2,2-dimethyl-4-oxo-4-(((1R,3aS,5aR,5bR,7aR,9S,11aR,11bR,13aR,13bR)-5a,5b,8,8,11a-pentamethyl-1-(1-methylcyclopropyl)-3a-((S)-2-(5-(pyridin-2-yl)-1H-imidazol-2-yl)pyrrolidine-1-carbonyl)icosahydro-1H-cyclopenta[a]chrysen-9-yl)oxy)butanoic acid]
IC50 [1]: 0.8 nM | AUC(0-t) [2]: 93.1 µg·h/mL | Cmax [2]: 7120 ng/mL

C=C(C)[C@@H]1CC[C@]2(C(=O)N3CCC[C@H]3c3nc4ccccc4[nH]3)CC[C@]3(C)[C@H](CC[C@@H]4[C@@]5(C)CC[C@H](OC(=O)[C@H]6C[C@@H](C(=O)O)C6(C)C)C(C)(C)[C@@H]5CC[C@]43C)[C@@H]12 [Compound 37]
inhibition at 0.1 µM [1]: 99% | inhibition at 1 µM [1]: 99% | IC50 [1]: 3.21 nM | AUC(0-t) [2]: 487 µg·h/mL | Cmax [2]: 16800 ng/mL

C=C(C)[C@@H]1CC[C@]2(C(=O)N3C[C@H](OCCOC)C[C@H]3c3nc(-c4ccccc4)c[nH]3)CC[C@]3(C)[C@H](CC[C@@H]4[C@@]5(C)CC[C@H](OC(=O)CC(C)(C)C(=O)O)C(C)(C)[C@@H]5CC[C@]43C)[C@@H]12 [Compound 43, 4-(((1R,3aS,5aR,5bR,7aR,9S,11aR,11bR,13aR,13bR)-3a-((2S,4R)-4-(2-methoxyethoxy)-2-(4-phenyl-1H-imidazol-2-yl)pyrrolidine-1-carbonyl)-5a,5b,8,8,11a-pentamethyl-1-(prop-1-en-2-yl)icosahydro-1H-cyclopenta[a]chrysen-9-yl)oxy)-2,2-dimethyl-4-oxobutanoic acid]
IC50 [1]: 0.3 nM | AUC(0-t) [2]: 333 µg·h/mL | Cmax [2]: 15400 ng/mL

CC1([C@@H]2CC[C@]3(C(=O)N4CCC(c5ncc(-c6ccccc6)[nH]5)CC4)CC[C@]4(C)[C@H](CC[C@@H]5[C@@]6(C)CC[C@H](OC(=O)[C@H]7C[C@@H](C(=O)O)C7(C)C)C(C)(C)[C@@H]6CC[C@]54C)[C@@H]23)CC1 [Compound 57, (1R,3S)-2,2-dimethyl-3-((((1R,3aS,5aR,5bR,7aR,9S,11aR,11bR,13aR,13bR)-5a,5b,8,8,11a-pentamethyl-1-(1-methylcyclopropyl)-3a-(4-(5-phenyl-1H-imidazol-2-yl)piperidine-1-carbonyl)icosahydro-1H-cyclopenta[a]chrysen-9-yl)oxy)carbonyl)cyclobutane-1-carboxylic acid]
IC50 [1]: 4.42 nM | AUC(0-t) [2]: 66.4 µg·h/mL | Cmax [2]: 2790 ng/mL

C=C(C)[C@@H]1CC[C@]2(C(=O)N3CCC[C@H]3c3nc(C(C)(C)C)co3)CC[C@]3(C)[C@H](CC[C@@H]4[C@@]5(C)CC[C@H](OC(=O)[C@H]6C[C@@H](C(=O)O)C6(C)C)C(C)(C)[C@@H]5CC[C@]43C)[C@@H]12 [Compound 12, (1R,3S)-3-((((1R,3aS,5aR,5bR,7aR,9S,11aR,11bR,13aR,13bR)-3a-((S)-2-(4-(tert-butyl)oxazol-2-yl)pyrrolidine-1-carbonyl)-5a,5b,8,8,11a-pentamethyl-1-(prop-1-en-2-yl)icosahydro-1H-cyclopenta[a]chrysen-9-yl)oxy)carbonyl)-2,2-dimethylcyclobutane-1-carboxylic acid]
IC50 [1]: 139 nM | AUC(0-t) [2]: 395 µg·h/mL | Cmax [2]: 13200 ng/mL

CC1([C@@H]2CC[C@]3(C(=O)N4CCC[C@H]4c4ncc(-c5cccc(F)c5)[nH]4)CC[C@]4(C)[C@H](CC[C@@H]5[C@@]6(C)CC[C@H](OC(=O)[C@H]7C[C@@H](C(=O)O)C7(C)C)C(C)(C)[C@@H]6CC[C@]54C)[C@@H]23)CC1 [Compound 50, (1R,3S)-3-((((1R,3aS,5aR,5bR,7aR,9S,11aR,11bR,13aR,13bR)-3a-((S)-2-(5-(3-fluorophenyl)-1H-imidazol-2-yl)pyrrolidine-1-carbonyl)-5a,5b,8,8,11a-pentamethyl-1-(1-methylcyclopropyl)icosahydro-1H-cyclopenta[a]chrysen-9-yl)oxy)carbonyl)-2,2-dimethylcyclobutane-1-carboxylic acid]
IC50 [1]: 0.35 nM | AUC(0-t) [2]: 358 µg·h/mL | Cmax [2]: 13900 ng/mL

C=C(C)[C@@H]1CC[C@]2(C(=O)N3C[C@H](OCCOC)C[C@H]3c3nc(-c4cccnc4)c[nH]3)CC[C@]3(C)[C@H](CC[C@@H]4[C@@]5(C)CC[C@H](OC(=O)[C@H]6C[C@@H](C(=O)O)C6(C)C)C(C)(C)[C@@H]5CC[C@]43C)[C@@H]12 [Compound 10, (1R,3S)-3-((((1R,3aS,5aR,5bR,7aR,9S,11bR,11bR,13aR,13bR)-3a-((2S,4R)-4-(2-methoxyethoxy)-2-(4-(pyridin-3-yl)-1H-imidazol-2-yl)pyrrolidine-1-carbonyl)-5a,5b,8,8,11a-pentamethyl-1-(prop-1-en-2-yl)icosahydro-1H-cyclopenta[a]chrysen-9-yl)oxy)carbonyl)-2,2-dimethylcyclobutane-1-carboxylic acid]
IC50 [1]: 2.82 nM | AUC(0-t) [2]: 301 µg·h/mL | Cmax [2]: 17900 ng/mL
